Experimental data from patent US11583511B2, “Maresins for use in the treatment of CNS injuries” (UNIVERSITAT AUTONOMA DE BARCELONA, priority 2017, dated 2023).

Assays:
[1] = test system: spinal cord contusion injury; test: Functional assessment of locomotor recovery after SCI (BMS, DigiGait, treadmill); assay type: in vivo, C57BI/6 mice
Method: (§1) All surgical procedures were approved by the Universitat Autònoma de Barcelona Animal Care Committee and followed the guidelines of the European Commission on Animal Care, and the methods for each procedure were carried out in accordance with the approved guidelines. 142 Adult (8 to 10 weeks old) female C57BI/6 mice (Charles River) were anesthetized with ketamine:xylazine (90:10 mg/kg). After performing a laminectomy at the 11th thoracic vertebrae, the exposed spinal cord was contused using the Infinite Horizon Impactor device (Precision Scientific Instrumentation, Lexington, Ky.). Injuries were made using a force of 60 kdynes and tissue displacement ranging between 500-700 μm as reported earlier (Coll-Miro et al., 2016).
(§2) One hour after spinal cord injury, 1 μg of MaR1 (7S,14S-dihydroxy-4Z,8E,10E,12Z,16Z, 19Z-docosahexaenoic acid; Cayman Chemical) was injected intravenously in 100 μl of sterile saline, and then repeated daily thereafter until day 7. Control mice were injected with an equal volume of sterile saline following the same injection protocol. Precautions with regards to the handling of lipid mediators to prevent inactivity due to oxygenation were implemented. The MaR1 dosage was chosen accordingly to be above levels i) of approved MaR1 bioactivity in experimental disease models (Serhan et al., 2015) and ii) above SPM dosages sufficient to exert bioactivity in the CNS with intact and closed blood brain barrier (Marcheselli et al., 2003; Svensson et al., 2007).
Locomotor recovery was evaluated at 1, 3, 5, 7, 10, 14, 21 and 28 dpi in an open-field test using the nine-point Basso Mouse Scale (BMS) (Basso et al., 2006), which was specifically developed for locomotor testing after contusion injuries in mice. The BMS analysis of hindlimb movements and coordination was performed by two independent assessors blinded for the treatment groups (MaR1 vs saline) and the consensus score taken. […] Moreover, the highest locomotion speed that each mouse was to able locomote for at least 5 seconds was also recorded on the DigiGait treadmill belt. […]

[2] = test system: STAT, MAPK, NF-κB and PI3K/Akt signaling; test: Western blotting of inflammatory signaling pathways in contused spinal cord; assay type: in vivo, C57BI/6 mice; settings: vs saline
Method: as §1, §2
Samples used for Luminex assay, were also used to for western blotting. Protein samples (30 μg) were separated by electrophoresis on a 10-15% polyacrylamide gel and transferred onto PVDF membranes (Millipore). The membranes were incubated overnight at 4° C. with rabbit antibodies against phospho NF-kB p65 (1:1000; Cell Signaling), against the phosphorylated form of STAT1 (1:500; Cell Signaling), STAT3 (1:500; Cell Signaling), STAT5 (1:500; Cell Signaling) and STAT6 (1:500; Cell Signaling), JNK (1:500; Santa Cruz), ERK1/2 (1:1000; Cell Signaling), p38 (1:1000; Cell Signaling) and AKT (1:1000; Cell Signaling). Bands were detected using Chemiluminescence (Immobilon Western Chemiluminescence HRP reagent, Millipore) and data quantified by densitometry using Workflow v3 software in a Chemidoc apparatus (Millipore). ß-actin (1:10.000; Sigma Aldrich) was used to ensure equal loading of samples.

[3] = test system: macrophages and microglia (Ly6C, iNOS, Arg1); test: Flow cytometry of macrophage and microglia phenotype after SCI; assay type: in vivo, C57BI/6 mice
Method: as §1, §2
(§3) Immune cells from the laminectomized and injured spinal cord were analyzed by flow cytometry at 1, 3, 7, 14, 21 and 28 days post-injury as described previously to study the dynamics of immune cell in spinal cord injury as described previously (Santos-Nogueira et al., 2015; Coll-Miro et al., 2016; Francos-Quijorna et al., 2016). Similarly, spinal cord from mice treated with MaR1 or saline were also harvested at day 1, 3 and 7 post-lesion. Briefly, spinal cords were cut in little pieces and passed through a cell strainer of 70 μm (BD falcon) and the cell suspension was centrifuged twice at 300 g for 10 minutes at 4° C. After cell counts, samples were divided, and cells alone and isotype-matched control samples were generated to control for nonspecific binding of antibodies and for auto-fluorescence. The following antibodies from eBioscience were used at 1:250 concentration: CD45-PerCP, CD11b-PE-Cy7, Ly6C-FITC, Ly6G-PE, Gr1-FITC, F4/80-APC or PE, CD3-FITC, CD4-APC, CD8-APC, CD19-PE, CD206-FITC, CD16/32-PE. After 30 min of incubation with combinations of antibodies at 4° C., cells were then fixed in 1% paraformaldehyde. For intracellular staining, cells were permeabilized with Permeabilization Wash Buffer (Biolegend), incubated with unconjugated rabbit antibodies against iNOS (1:200 Abcam), and goat antibodies against Arg1 (1:200; Santa Cruz) for 30 minutes, followed by staining with Alexa488 or Alexa647 conjugated donkey secondary antibodies against rabbit or goat (1:500 Molecular Probes) for 30 min. Finally, samples were washed and fixed in 1% paraformaldehyde. To perform the analysis, cells were first gated for CD45 to ensure that only infiltrating leukocytes and resident microglia are selected. Then, the following combination of markers were used to identify: microglia (CD45^low, CD11b^+, F4/80^+); macrophages (CD45^high, CD11b^+, F4/80^+); neutrophils (CD45^high, CD11b^+, F4/80^−, Gr1^high); CD4 T-Cells (CD45^+, CD11b^−, CD3^+, CD4^+); CD8 T Cells (CD45^+, CD11b, CD3^+, CD8^+); B cell (CD45^+, CD11b^−, CD3^−, CD19^+). To study the phenotype of microglia and macrophages, these cells were further differentiated based on Ly6C, CD16/32, iNOS, CD206 and Arg1 expression (Coll-Miro et al., 2016; Francos-Quijorna et al., 2016). Analysis of inflammatory cell kinetics at the lesion site was conducted applying objective and quantifiable measures of resolution dynamics as described previously (Pruss et al., 2011). […]

[4] = test system: macrophages (CD45high, CD11b+, F4/80+); test: Efferocytosis: neutrophil marker Ly6G inside macrophages after SCI; assay type: in vivo, C57BI/6 mice; settings: 7 days post-lesion; vs saline
Method: All surgical procedures were approved by the Universitat Autònoma de Barcelona Animal Care Committee and followed the guidelines of the European Commission on Animal Care, and the methods for each procedure were carried out in accordance with the approved guidelines. 142 Adult (8 to 10 weeks old) female C57BI/6 mice (Charles River) were anesthetized with ketamine:xylazine (90:10 mg/kg). After performing a laminectomy at the 11th thoracic vertebrae, the exposed spinal cord was contused using the Infinite Horizon Impactor device (Precision Scientific Instrumentation, Lexington, Ky.). […]
Immune cells from the laminectomized and injured spinal cord were analyzed by flow cytometry at 1, 3, 7, 14, 21 and 28 days post-injury as described previously to study the dynamics of immune cell in spinal cord injury as described previously (Santos-Nogueira et al., 2015; Coll-Miro et al., 2016; Francos-Quijorna et al., 2016). […] After cell counts, samples were divided, and cells alone and isotype-matched control samples were generated to control for nonspecific binding of antibodies and for auto-fluorescence. […] Analysis of inflammatory cell kinetics at the lesion site was conducted applying objective and quantifiable measures of resolution dynamics as described previously (Pruss et al., 2011). […]

[5] = test system: human macrophages; settings: 1 nM concentration; cited from earlier work
[6] = test system: cytokines and chemokines in the contused spinal cord; test: Cytokine protein expression in contused spinal cord (Luminex); assay type: in vivo, C57BI/6 mice
Method: as §1, §2
Mice treated with saline or MaR1 were perfused with sterile saline and a 5 mm length of spinal cord centered on the lesion was collected at 12 and 24 h after contusion injury and snap-frozen. Spinal cords were homogenized and protein concentration was determined using the DC Protein Assay (Bio-Rad). Samples were concentrated to 4 μg/μl using MicroCon centrifugation filters (Millipore) to ensure equal amounts of protein. Low concentrations of cytokines in the sample result in binding to the filters whereas high concentrations of protein sustain less losses. The protein levels of 32 cytokines and chemokines were then analyzed using the Milliplex MAP Mouse Cytokine/Chemokine magnetic bead panel (Millipore) on a Luminex (Millipore) as per manufacturers' protocol (Francos-Quijorna et al., 2016).

[7] = test system: neutrophils, macrophages and microglia in the contused spinal cord; test: Flow cytometry of immune cell counts in contused spinal cord after MaR1 treatment; assay type: in vivo, C57BI/6 mice; settings: vs saline
Method: as §1, §2, §3

[8] = test system: spinal cord contusion injury; test: Histology of secondary tissue damage after SCI; assay type: in vivo, C57BI/6 mice; settings: 28 days post-injury, vs saline
Method: as §1, §2
At 28 days post-injury, mice were perfused with 4% paraformaldehyde in 0.1M-phosphate buffer (PB). A 5 mm length of spinal cord containing the lesion site was removed, cryoprotected with 30% sucrose in 0.1M PB at 4° C., and 10 series of 10 μm thick section were picked up on glass slides. Adjacent sections on the same slide were therefore 100 μm apart. For quantification of myelin area content in the spinal cord analyses, sections were stained with Luxol Fast Blue (Sigma). […]
The epicenter of the injection or contusion injury impact was determined for each mouse spinal cord by localizing the tissue section with the greatest damage using LFB stained section. Myelin content after SCI was calculated by delineating the are of LFB stained tissue. Neuronal survival was assessed by counting the number of NeuN^+ cells in the ventral horns at the injury epicenter and at rostral and caudal areas. Axonal sparing was calculated by counting the number of axons in the dorsal column at the injury epicenter, the region of most pronounced damage. […] All quantifications were performed blinded to the experimental groups with the help of the ImageJ image analysis software.

[9] = spinal cord tissue 24 hours after SCI
[10] = contused spinal cord, 24 h after SCI, MaR1 1 μg i.v., mean ± SEM

CC/C=C\C/C=C\C[C@H](O)\C=C/C=C/C=C/[C@@H](O)C/C=C\CCC(=O)O [MaR1, 7S,14S-dihydroxy-4Z,8E,10E,12Z,16Z, 19Z-docosahexaenoic acid]
BMS score ([1]; 28 dpi, nine-point Basso Mouse Scale, 1 μg MaR1 i.v. daily until day 7): 4.58±0.22 | DigiGait gait symmetry and stance/width stepping variability ([1]; day 28 post-injury, vs saline): improved | speed of locomotion on the treadmill ([1]; day 28 post-injury, vs saline): significantly faster | ERK1/2 activation ([2]; 24 hours post-injury): attenuated | JKN activation ([2]; 24 hours post-injury): remained unaltered | STAT1 activation ([2]; 24 hours post-injury): attenuated | STAT3 activation ([2]; 24 hours post-injury): attenuated | STAT5 activation ([2]; 24 hours post-injury): attenuated | STAT6 activation ([2]; 24 hours post-injury): remained unaltered | p38 activation ([2]; 24 hours post-injury): attenuated | pAkt level [2, 9]: not affected | pP65 level [2, 9]: not affected | percent of Ly6Chigh microglia ([3]; 7 days after SCI): 10.6%±1.1 | ratio LyC6low/LyC6high macrophages ([3]; 7 days after SCI, p=0.0036 vs saline): 3.73±0.26 | reduction of pro-inflammatory macrophages (Ly6Chigh) ([3]; 7 days after SCI, vs saline): ~50% | increase of Arg-1 expression in macrophages ([3]; 7 days post injury, did not reach statistical significance): ~2 fold | iNOS expression in microglia ([3]; 7 days post injury, not statistically significant): tended to reduce | iNOS expression in macrophages ([3]; 7 days post injury, vs saline): significantly reduced | increase of neutrophil marker Ly6G inside macrophages (neutrophil phagocytosis) [4]: ~2 fold | efferocytosis by human macrophages compared with RvD1 [5]: greater efferocytosis | protein levels of the anti inflammatory cytokine IL-10 ([6]; after SCI, vs saline): did not reduce | CCL3 protein level [6, 10]: 13.3 ± 1.18 | CCL4 protein level [6, 10]: 17.7 ± 1.46 | CSF3 protein level [6, 10]: 741 ± 118 | CXCL1 protein level [6, 10]: 87.5 ± 21.3 | CXCL2 protein level [6, 10]: 41.4 ± 7.50 | IL-6 protein level [6, 10]: 291 ± 56.7 | IL-4 protein levels ([6]; injured spinal cord, both groups): undetected | clearance of neutrophils from the contused spinal cord (Ri and T50) ([7]; 1 μg MaR1 i.v. daily for 7 days): accelerated | entrance of blood-borne macrophages into the contused spinal cord ([7]; day 1): not different | neutrophil counts in contused spinal cord ([7]; day 1 post-injury, 1 μg MaR1 i.v. daily from 1 hour after SCI): unaltered | macrophage counts in the contused spinal cord ([7]; day 3 post-injury, not significant): tended to be reduced | reduction of neutrophil counts in the injured spinal cord ([7]; day 7, 1 μg MaR1 i.v. daily): ~50% | macrophage accumulation in the lesioned spinal cord ([7]; day 7 post-lesion): significantly reduced | microglial numbers in the contused spinal cord ([7]; first week following contusion injury): did not attenuate | neuronal survival in the ventral horn ([8]; caudal regions to the injury epicenter): improved | myelin content (LFB) ([8]; injury epicenter and 200 μm rostral and caudal): increased | axonal sparing (NF+) in the dorsal columns ([8]; injury epicenter): enhanced | demyelination (NF/MBP+) in the dorsal columns ([8]; injury epicenter): reduced
